{"source": "ChEMBL document CHEMBL1201862", "about": "“PubChem BioAssay data set” (2004)", "key": {"Phospholipase D1": {"biological_target": "Phospholipase D1 (Homo sapiens, UniProt Q13393)", "sequence (Q13393 whole entry)": "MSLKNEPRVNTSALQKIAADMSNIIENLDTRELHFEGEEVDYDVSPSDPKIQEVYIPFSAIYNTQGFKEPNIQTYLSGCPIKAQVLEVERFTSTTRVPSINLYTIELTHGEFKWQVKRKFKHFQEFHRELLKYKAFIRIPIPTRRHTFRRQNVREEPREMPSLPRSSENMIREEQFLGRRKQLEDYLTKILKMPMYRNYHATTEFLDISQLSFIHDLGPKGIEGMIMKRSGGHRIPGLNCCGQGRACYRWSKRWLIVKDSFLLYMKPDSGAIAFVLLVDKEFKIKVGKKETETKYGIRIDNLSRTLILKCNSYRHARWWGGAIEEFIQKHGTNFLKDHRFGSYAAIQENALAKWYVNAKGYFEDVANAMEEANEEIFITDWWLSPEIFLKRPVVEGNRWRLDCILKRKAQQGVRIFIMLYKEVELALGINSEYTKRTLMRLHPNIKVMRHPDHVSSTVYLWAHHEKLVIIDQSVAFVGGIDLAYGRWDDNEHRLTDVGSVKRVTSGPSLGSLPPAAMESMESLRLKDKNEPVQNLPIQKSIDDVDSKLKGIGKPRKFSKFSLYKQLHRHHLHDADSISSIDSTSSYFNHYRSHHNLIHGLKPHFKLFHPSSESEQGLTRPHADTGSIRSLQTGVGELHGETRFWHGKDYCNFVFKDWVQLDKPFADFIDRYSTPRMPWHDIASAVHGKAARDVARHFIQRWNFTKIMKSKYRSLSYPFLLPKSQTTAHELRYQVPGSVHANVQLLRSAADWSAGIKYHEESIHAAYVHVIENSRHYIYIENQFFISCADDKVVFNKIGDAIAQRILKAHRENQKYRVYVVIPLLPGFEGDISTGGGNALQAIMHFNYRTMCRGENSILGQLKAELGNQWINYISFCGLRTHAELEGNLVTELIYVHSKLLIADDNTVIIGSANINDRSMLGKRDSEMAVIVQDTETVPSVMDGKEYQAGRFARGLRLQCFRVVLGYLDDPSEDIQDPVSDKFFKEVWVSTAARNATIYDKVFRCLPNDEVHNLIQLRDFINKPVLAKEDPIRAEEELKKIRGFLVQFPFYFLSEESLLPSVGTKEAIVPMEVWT", "experiment": "PLD1 Cellular Concentration Response Study.", "format": "functional"}, "Phospholipase D2": {"biological_target": "Phospholipase D2 (Homo sapiens, UniProt O14939)", "sequence (O14939 whole entry)": "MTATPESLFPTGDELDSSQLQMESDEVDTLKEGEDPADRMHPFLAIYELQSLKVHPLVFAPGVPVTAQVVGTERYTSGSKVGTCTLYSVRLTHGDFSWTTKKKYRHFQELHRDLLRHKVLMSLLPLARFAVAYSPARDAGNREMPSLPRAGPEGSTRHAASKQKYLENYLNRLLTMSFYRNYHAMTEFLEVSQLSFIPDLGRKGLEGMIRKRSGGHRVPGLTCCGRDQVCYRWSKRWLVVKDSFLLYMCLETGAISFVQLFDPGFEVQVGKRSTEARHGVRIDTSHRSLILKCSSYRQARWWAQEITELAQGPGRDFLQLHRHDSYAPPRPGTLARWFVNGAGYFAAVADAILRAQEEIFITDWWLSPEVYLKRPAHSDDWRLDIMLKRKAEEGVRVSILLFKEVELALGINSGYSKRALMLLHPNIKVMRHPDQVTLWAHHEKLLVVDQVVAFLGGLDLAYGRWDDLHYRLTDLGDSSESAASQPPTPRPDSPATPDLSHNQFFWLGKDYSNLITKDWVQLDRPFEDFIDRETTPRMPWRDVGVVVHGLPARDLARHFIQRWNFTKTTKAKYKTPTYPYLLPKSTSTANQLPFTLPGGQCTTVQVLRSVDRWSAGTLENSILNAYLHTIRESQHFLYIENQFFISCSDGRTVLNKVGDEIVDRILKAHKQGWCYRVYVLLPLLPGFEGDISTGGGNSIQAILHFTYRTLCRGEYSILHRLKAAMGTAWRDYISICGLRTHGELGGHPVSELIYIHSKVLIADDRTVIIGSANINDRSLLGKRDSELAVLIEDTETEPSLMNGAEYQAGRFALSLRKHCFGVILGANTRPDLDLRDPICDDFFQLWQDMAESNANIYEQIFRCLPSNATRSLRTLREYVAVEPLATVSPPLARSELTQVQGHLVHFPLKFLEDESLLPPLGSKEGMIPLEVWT", "experiment": "PLD2 Cellular Concentration Response Study.", "format": "functional"}, "[1]": {"biological_target": "NAD-dependent protein deacylase sirtuin-5, mitochondrial (Homo sapiens, UniProt Q9NXA8)", "sequence (Q9NXA8 whole entry)": "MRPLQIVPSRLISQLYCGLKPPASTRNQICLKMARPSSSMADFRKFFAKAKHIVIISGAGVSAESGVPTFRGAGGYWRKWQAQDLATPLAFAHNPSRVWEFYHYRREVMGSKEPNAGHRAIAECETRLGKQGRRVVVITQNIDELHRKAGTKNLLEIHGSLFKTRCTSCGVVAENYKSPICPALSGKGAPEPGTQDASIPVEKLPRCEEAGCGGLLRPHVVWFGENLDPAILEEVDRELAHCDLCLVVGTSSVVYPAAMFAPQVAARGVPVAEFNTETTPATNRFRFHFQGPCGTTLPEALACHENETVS", "experiment": "sirtuin-5 deacylation blockers, concentration series – biochemical, fluorescence imaging, cherry-pick, set 5, dose response (AID 720591);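 also: desuccinylation of succinyl peptide AMC substrate read as fluorescence after trypsin release; potency of inhibitors that lower fluorescence and may act on trypsin instead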"}, "[2]": {"experiment": "ATP-based viability loss in A549 cells – cell-based, CellTiter-Glo luminescence, dry powder samples, cytotoxicity control, dose response (AID 720585)", "format": "functional"}, "[3]": {"biological_target": "E3 ubiquitin-protein ligase UHRF1 (Homo sapiens, UniProt Q96T88)", "sequence (Q96T88 whole entry, the tested form may be a part)": "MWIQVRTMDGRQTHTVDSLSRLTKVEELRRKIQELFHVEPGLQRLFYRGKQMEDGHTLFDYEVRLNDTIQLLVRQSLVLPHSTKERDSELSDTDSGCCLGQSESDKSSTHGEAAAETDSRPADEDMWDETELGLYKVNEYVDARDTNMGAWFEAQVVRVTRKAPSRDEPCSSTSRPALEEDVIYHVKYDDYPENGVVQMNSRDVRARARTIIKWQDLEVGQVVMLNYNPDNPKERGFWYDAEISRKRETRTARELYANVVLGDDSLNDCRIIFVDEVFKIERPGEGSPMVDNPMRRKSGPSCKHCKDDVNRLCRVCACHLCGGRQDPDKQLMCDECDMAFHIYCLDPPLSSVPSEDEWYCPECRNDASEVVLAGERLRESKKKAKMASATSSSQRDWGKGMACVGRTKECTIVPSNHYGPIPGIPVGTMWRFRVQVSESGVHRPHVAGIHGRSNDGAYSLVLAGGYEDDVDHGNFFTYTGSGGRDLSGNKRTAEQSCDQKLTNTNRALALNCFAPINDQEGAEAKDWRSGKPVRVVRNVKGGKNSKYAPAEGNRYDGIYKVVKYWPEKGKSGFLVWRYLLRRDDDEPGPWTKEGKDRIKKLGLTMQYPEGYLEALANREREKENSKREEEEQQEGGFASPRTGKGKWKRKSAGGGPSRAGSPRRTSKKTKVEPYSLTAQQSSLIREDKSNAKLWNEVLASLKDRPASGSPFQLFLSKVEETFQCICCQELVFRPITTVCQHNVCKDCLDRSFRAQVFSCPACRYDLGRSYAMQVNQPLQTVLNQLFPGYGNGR", "experiment": "Counterscreen for inhibitors of 5-meCpG-binding domain protein 2 (MBD2): TRFRET-based biochemical high throughput dose response assay to identify inhibitors of binding of ubiquitin-like with PHD and ring finger domains 1 (UHRF1) to methylated oligonucleotide."}, "[4]": {"experiment": "HepG2 hepatoma cell viability loss – plate reader, dry powder, cytotoxicity control, dose response (AID 651947)", "format": "functional, cell-based"}, "[5]": {"biological_target": "T1, Methionyl-tRNA synthetase, putative (Trypanosoma brucei brucei, UniProt Q38C91)", "T1 sequence (Q38C91 whole entry)": "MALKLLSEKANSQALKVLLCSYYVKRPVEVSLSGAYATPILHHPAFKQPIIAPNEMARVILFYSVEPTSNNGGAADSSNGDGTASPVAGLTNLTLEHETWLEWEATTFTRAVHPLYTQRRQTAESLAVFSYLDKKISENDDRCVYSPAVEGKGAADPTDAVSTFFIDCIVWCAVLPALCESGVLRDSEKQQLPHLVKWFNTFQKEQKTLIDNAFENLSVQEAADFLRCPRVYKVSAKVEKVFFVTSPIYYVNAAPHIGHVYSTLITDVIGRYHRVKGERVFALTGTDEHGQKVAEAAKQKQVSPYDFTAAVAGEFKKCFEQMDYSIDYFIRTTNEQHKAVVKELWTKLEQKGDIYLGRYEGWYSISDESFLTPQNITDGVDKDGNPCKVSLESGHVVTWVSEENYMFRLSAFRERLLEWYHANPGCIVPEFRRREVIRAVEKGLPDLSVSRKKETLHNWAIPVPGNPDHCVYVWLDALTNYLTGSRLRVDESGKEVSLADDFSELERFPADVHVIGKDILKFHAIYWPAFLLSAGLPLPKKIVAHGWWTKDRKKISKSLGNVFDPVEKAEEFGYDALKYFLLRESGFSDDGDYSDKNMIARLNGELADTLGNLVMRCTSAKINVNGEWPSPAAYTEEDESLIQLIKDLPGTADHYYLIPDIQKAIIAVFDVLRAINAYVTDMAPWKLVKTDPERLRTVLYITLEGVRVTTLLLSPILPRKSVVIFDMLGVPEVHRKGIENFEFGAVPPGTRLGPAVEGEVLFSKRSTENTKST", "format": "functional, Trypanosoma brucei brucei strain 927/4 GUTat10.1"}, "[6]": {"biological_target": "T1, Methionyl-tRNA synthetase, putative", "format": "functional, Trypanosoma brucei brucei strain 927/4 GUTat10.1", "remark": "listed apart in the source"}, "[7]": {"experiment": "Late stage counterscreen for inhibitors of Trypanosoma brucei methionyl tRNA synthetase (MetRS): Luminescence-based cell-based high throughput dose response assay to identify compounds that are cytotoxic to Jurkat human T lymphocyte cells.", "format": "functional"}, "[8]": {"experiment": "Counterscreen for inhibitors of Trypanosoma brucei methionyl tRNA synthetase (MetRS): Luminescence-based cell-based high throughput dose response assay to identify compounds that are cytotoxic to Jurkat human T lymphocyte cells.", "format": "functional"}, "[9]": {"experiment": "inhibitors of non-replicating M. tuberculosis, dose response, luciferase, dry powder (AID 651620)", "format": "functional", "details": "Mycobacterium tuberculosis"}, "[10]": {"experiment": "growth inhibition of replicating M. tuberculosis, dose response, counter-screen, dry powder, IC90 (AID 651617)", "format": "functional", "details": "Mycobacterium tuberculosis"}, "[11]": {"experiment": "inhibitors of non-replicating M. tuberculosis, dose response, luciferase, dry powder (AID 651619)", "format": "functional", "details": "Mycobacterium tuberculosis"}, "[12]": {"experiment": "viability loss in HEK293T cells – cell-based, CellTiter-Glo luminescence, dry powder, set 6, cytotoxicity control, dose response (AID 651949)", "format": "functional", "details": "HEK293"}}, "note": "Calls of active or inactive are those of the source."}
{"compound": "O=C(NCCN1CCC2(CC1)C(=O)NCN2Cc1ccncc1)c1ccc2ccccc2c1", "values": [{"measurement": "IC50", "setting": "Phospholipase D1", "result": "20 µM (active)"}, {"measurement": "IC50", "setting": "Phospholipase D2", "result": "0.85 µM (active)"}]}
{"compound": "COc1ccc(OC)c(NC(=O)C2CCN(C(=O)c3cccs3)CC2)c1", "values": [{"measurement": "AC50", "setting": "[1]", "result": "26.6 µM (active)"}]}
{"compound": "Cc1ccc(/C=C(\\CCCC(=O)O)c2nc3ccccc3s2)cc1[N+](=O)[O-]", "values": [{"measurement": "AbsAC50_uM", "setting": "[2]", "result": 140.77, "unit": "µM"}]}
{"compound": "OCCCNCc1cccc2ccccc12", "values": [{"measurement": "IC50", "setting": "[3]", "result": "> 43.9 µM (inactive)"}]}
{"compound": "Cc1ccccc1CSc1nnc(-c2ccccc2)o1", "values": [{"measurement": "AC50", "setting": "[4]", "result": "0.308 µM (active)"}]}
{"compound": "CC(C)OCCCN1CC(=O)N2C(c3cccc([N+](=O)[O-])c3)c3[nH]c4ccccc4c3C[C@H]2C1=O", "note": "(some centres undefined)", "values": [{"measurement": "IC50", "setting": "[5]", "result": "0.979 µM (active)"}, {"measurement": "IC50", "setting": "[6]", "result": "2.17 µM (active)"}, {"measurement": "IC50", "setting": "[7]", "result": "> 83.3 µM (inactive)"}, {"measurement": "IC50", "setting": "[8]", "result": "73.1 µM (inactive)"}]}
{"compound": "c1ccc(-n2cc(CSc3nnc(C4CCC4)o3)nn2)cc1", "values": [{"measurement": "IC90", "setting": "[9]", "result": "2 µM (active)"}, {"measurement": "IC90", "setting": "[10]", "result": "62 µM (active)"}, {"measurement": "IC90", "setting": "[11]", "result": "2 µM (active)"}, {"measurement": "AC50", "setting": "[12]", "result": "> 52 µM (inactive)"}]}
